Reference: ChEMBL document CHEMBL3991601, “The target landscape of clinical kinase drugs” (Science, 2017)
Activity calls are given as the source filed them. Cut-off read from the data, not from the text of the source, for most assays here: actives have a measured Kd and inactives only a lower limit.

Tests used:
Pyridoxal kinase = molecular target: T1, Pyridoxal kinase (Homo sapiens, UniProt O00764)
T1 sequence (O00764 whole entry): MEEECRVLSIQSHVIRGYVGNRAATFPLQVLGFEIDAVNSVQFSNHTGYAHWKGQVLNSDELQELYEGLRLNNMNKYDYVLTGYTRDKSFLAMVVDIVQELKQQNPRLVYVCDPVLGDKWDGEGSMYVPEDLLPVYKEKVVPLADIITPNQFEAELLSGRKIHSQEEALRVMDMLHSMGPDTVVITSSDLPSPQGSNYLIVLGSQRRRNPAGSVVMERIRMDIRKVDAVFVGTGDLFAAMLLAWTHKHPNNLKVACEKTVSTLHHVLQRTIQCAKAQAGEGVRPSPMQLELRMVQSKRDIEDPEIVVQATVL

[1] = molecular target: T2, Serine/threonine-protein kinase Chk1 (Homo sapiens, UniProt O14757)
T2 sequence (O14757 whole entry): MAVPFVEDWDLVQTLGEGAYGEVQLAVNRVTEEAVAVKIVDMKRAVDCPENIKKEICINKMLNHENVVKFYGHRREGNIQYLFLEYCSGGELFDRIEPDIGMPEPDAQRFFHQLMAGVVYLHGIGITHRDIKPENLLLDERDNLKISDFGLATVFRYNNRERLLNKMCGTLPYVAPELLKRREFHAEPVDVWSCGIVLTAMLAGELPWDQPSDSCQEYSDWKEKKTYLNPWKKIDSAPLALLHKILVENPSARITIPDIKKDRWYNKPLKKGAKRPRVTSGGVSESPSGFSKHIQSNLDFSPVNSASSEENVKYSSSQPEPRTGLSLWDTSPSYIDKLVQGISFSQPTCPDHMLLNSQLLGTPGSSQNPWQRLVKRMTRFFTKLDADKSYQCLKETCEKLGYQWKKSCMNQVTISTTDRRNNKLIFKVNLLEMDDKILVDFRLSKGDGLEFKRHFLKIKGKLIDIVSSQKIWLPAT

[2] = molecular target: T3, Serine/threonine-protein kinase 4 (Homo sapiens, UniProt Q13043)
T3 sequence (Q13043 whole entry): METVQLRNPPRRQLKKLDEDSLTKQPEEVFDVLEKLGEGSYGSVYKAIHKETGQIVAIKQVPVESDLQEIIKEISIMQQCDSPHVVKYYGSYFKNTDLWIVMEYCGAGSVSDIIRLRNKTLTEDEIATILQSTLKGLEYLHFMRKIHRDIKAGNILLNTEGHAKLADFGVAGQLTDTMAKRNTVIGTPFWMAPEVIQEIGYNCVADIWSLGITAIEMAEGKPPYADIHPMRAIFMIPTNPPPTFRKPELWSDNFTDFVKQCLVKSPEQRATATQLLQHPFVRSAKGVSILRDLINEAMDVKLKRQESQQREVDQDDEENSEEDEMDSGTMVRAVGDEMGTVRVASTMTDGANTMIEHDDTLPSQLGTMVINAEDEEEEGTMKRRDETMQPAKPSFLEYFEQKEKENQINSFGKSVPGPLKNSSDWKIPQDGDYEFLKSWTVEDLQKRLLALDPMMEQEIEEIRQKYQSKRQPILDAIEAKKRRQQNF

[3] = molecular target: T4, Serine/threonine-protein kinase D3 (Homo sapiens, UniProt O94806)
T4 sequence (O94806 whole entry): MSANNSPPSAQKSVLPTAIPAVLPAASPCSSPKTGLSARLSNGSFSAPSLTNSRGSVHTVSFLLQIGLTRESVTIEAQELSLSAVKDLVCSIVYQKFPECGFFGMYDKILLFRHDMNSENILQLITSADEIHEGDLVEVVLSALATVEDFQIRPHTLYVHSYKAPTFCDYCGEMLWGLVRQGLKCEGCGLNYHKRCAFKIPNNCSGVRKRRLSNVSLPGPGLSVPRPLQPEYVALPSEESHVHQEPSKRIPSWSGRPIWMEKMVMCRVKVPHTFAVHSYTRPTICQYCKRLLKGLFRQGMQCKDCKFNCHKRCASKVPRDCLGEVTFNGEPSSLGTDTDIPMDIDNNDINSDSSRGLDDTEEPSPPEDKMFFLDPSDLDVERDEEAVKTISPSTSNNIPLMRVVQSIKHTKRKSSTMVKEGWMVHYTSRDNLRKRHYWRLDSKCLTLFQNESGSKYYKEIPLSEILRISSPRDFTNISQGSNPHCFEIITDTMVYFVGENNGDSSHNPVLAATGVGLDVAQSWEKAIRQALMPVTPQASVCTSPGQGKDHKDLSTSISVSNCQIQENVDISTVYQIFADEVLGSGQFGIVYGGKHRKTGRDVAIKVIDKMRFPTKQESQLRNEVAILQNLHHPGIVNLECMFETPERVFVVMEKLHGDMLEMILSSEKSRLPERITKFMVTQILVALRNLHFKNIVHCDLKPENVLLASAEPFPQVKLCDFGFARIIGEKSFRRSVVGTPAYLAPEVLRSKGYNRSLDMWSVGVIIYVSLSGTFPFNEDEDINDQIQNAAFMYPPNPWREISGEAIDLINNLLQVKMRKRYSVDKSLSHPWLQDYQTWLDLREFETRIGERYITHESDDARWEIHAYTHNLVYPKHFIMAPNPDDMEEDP

[4] = molecular target: Protein kinase C theta type (Homo sapiens, UniProt Q04759)
Protein kinase C theta type, sequence (Q04759 whole entry): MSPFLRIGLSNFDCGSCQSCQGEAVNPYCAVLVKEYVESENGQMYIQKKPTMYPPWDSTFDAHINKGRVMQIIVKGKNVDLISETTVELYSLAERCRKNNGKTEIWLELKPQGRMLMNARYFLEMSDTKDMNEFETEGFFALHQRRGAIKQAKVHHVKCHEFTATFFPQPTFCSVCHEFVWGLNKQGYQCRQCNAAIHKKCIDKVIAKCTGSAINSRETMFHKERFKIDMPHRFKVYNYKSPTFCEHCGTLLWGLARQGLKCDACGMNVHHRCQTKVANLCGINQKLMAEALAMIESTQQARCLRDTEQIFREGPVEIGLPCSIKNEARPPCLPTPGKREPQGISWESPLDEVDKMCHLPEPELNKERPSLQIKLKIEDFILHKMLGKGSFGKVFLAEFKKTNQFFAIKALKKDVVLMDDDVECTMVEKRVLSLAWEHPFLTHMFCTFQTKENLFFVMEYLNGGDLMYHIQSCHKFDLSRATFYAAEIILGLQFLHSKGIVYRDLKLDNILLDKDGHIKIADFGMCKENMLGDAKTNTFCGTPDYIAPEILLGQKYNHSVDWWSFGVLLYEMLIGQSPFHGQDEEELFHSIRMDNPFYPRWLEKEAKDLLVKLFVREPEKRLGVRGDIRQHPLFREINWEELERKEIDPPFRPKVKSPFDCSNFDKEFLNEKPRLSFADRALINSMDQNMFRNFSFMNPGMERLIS

Ephrin type-A receptor 4 = Ephrin type-A receptor 4 (Homo sapiens, UniProt P54764)
Ephrin type-A receptor 4, sequence (P54764 whole entry): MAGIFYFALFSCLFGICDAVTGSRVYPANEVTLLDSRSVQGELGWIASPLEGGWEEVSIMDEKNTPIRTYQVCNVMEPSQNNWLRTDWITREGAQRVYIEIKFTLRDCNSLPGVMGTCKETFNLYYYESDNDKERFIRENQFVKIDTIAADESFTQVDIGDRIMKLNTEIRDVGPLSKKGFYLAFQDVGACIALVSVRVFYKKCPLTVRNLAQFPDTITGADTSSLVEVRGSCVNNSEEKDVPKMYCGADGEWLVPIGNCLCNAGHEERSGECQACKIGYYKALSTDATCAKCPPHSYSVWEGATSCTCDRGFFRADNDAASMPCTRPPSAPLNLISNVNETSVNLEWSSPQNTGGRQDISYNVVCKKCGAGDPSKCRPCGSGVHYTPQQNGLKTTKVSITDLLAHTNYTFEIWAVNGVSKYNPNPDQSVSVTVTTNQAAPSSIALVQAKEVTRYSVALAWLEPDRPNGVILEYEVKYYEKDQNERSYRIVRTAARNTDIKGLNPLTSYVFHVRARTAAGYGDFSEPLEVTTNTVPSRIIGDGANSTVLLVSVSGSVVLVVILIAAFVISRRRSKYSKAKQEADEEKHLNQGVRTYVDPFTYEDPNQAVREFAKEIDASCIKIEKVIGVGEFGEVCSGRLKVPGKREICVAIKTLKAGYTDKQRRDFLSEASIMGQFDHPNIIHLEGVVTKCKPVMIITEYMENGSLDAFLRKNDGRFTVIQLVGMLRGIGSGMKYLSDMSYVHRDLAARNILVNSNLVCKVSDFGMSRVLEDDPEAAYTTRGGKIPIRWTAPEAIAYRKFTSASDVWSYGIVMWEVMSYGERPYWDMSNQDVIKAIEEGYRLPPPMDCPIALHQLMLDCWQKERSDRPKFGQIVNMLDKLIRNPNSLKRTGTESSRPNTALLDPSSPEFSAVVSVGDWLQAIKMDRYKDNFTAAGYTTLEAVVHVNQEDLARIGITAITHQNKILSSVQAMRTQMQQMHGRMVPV

[5] = molecular target: Serine/threonine-protein kinase 26 (Homo sapiens, UniProt Q9P289)
Serine/threonine-protein kinase 26, sequence (Q9P289 whole entry): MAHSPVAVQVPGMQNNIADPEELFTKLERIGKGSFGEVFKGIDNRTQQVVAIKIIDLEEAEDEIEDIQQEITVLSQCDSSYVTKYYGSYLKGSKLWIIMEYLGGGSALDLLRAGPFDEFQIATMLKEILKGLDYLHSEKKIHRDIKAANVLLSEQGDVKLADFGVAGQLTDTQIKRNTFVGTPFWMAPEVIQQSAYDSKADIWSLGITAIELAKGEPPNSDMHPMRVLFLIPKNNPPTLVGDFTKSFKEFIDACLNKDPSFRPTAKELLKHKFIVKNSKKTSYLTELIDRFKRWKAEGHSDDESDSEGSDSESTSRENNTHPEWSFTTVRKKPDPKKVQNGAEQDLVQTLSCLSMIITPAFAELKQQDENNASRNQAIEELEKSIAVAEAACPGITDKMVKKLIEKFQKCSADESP

ADP/ATP translocase 3 = molecular target: T5, ADP/ATP translocase 3 (Homo sapiens, UniProt P12236)
T5 sequence (P12236 whole entry): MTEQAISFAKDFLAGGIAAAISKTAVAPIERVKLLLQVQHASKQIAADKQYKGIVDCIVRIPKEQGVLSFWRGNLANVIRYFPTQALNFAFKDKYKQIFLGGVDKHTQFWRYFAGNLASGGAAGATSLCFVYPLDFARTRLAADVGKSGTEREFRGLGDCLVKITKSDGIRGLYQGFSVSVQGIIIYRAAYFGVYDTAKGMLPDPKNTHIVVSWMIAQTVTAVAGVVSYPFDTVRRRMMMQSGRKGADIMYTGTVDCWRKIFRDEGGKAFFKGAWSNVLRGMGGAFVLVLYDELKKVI

[6] = molecular target: Protein kinase C delta type (Homo sapiens, UniProt Q05655)
Protein kinase C delta type, sequence (Q05655 whole entry): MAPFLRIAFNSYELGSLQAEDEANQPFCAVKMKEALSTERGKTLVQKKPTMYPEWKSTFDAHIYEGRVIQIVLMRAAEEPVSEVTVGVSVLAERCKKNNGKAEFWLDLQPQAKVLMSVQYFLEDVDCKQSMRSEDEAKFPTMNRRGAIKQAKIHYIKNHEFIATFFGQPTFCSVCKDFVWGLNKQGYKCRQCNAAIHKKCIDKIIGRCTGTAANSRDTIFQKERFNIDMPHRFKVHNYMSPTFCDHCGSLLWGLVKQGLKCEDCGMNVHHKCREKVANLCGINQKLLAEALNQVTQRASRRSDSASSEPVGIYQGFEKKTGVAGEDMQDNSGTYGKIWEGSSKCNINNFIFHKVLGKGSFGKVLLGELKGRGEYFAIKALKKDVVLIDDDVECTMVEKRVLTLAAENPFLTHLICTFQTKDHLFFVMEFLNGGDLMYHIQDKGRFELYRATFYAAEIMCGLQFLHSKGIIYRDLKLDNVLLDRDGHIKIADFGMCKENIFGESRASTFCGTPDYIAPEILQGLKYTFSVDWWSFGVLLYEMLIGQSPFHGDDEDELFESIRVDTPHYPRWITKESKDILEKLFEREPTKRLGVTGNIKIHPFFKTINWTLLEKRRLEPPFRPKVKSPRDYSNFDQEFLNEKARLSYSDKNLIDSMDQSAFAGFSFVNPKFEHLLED

[7] = molecular target: RAC-gamma serine/threonine-protein kinase (Homo sapiens, UniProt Q9Y243)
RAC-gamma serine/threonine-protein kinase, sequence (Q9Y243 whole entry): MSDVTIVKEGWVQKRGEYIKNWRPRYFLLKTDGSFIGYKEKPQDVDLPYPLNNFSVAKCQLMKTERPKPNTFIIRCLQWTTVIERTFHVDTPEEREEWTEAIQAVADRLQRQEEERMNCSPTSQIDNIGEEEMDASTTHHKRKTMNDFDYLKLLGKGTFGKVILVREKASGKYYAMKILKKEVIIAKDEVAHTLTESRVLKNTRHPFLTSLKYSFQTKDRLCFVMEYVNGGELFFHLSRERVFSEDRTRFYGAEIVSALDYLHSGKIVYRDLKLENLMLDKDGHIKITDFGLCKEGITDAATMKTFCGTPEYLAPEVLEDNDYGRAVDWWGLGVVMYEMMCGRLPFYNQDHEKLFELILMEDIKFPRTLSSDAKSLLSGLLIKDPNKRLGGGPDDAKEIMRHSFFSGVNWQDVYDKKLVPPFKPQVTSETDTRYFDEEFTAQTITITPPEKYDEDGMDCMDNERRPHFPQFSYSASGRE

[8] = molecular target: Tyrosine-protein kinase ABL1 (Homo sapiens, UniProt P00519)
Tyrosine-protein kinase ABL1, sequence (P00519 whole entry): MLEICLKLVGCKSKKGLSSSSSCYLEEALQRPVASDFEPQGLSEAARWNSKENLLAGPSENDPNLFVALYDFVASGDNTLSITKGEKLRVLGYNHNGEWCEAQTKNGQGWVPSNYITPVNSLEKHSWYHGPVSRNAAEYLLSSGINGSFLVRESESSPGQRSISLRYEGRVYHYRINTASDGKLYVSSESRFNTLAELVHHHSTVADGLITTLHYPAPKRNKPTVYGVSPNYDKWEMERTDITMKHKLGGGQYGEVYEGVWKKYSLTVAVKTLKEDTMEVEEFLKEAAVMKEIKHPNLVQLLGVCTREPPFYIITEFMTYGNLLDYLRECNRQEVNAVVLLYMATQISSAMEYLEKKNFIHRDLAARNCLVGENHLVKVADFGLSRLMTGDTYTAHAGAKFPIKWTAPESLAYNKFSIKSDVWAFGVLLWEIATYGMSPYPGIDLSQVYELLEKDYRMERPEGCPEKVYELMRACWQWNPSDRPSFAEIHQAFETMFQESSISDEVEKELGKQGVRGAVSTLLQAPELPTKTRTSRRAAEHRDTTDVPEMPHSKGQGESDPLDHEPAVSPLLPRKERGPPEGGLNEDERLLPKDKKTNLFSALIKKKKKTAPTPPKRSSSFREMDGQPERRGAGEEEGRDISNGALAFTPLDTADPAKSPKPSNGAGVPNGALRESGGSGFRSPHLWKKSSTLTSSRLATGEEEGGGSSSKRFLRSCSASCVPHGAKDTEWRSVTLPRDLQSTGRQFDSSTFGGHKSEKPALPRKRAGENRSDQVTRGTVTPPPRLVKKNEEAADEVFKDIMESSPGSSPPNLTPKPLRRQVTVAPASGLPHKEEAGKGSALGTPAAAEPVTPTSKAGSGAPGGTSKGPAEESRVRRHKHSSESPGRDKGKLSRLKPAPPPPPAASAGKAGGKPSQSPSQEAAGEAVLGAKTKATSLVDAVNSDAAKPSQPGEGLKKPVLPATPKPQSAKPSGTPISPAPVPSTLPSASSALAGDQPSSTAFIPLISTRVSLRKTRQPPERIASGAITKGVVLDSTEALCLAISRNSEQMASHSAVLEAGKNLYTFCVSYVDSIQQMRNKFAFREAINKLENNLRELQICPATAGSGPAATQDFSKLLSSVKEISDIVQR
Note: in the data inactive means no Kd found up to 30 µM.

`CNC(=O)c1nn(C)c2c1C(C)(C)Cc1cnc(Nc3ccc(N4CCN(C)CC4)cc3)nc1-2` [MILCICLIB] was tested, and the Kd (Pyridoxal kinase) was > 30 µM (inactive), the Kd [1] was > 30 µM (inactive) and the Kd [2] was > 30 µM (inactive). For the same compound, the Kd [3] was 0.135 µM (active), the Kd [4] was > 30 µM (inactive) and the Kd (Ephrin type-A receptor 4) was 8.13 µM (active). For the same compound, the Kd [5] was > 30 µM (inactive), the Kd (ADP/ATP translocase 3) was > 30 µM (inactive) and the Kd [6] was > 30 µM (inactive). The Kd [7] was > 30 µM (inactive).
`NC1(c2ccc(-c3nc4ccn5c(=O)[nH]nc5c4cc3-c3ccccc3)cc2)CCC1` [MK-2206] was tested, and the Kd [8] was > 30 µM (inactive), the Kd (Pyridoxal kinase) was > 30 µM (inactive) and the Kd [1] was > 30 µM (inactive). For the same compound, the Kd [2] was > 30 µM (inactive), the Kd [3] was > 30 µM (inactive) and the Kd [4] was > 30 µM (inactive). For the same compound, the Kd (Ephrin type-A receptor 4) was > 30 µM (inactive), the Kd [5] was > 30 µM (inactive) and the Kd (ADP/ATP translocase 3) was > 30 µM (inactive). The Kd [6] was > 30 µM (inactive).
For `Cc1cnc(NC(=O)Nc2cc(Br)c(C)cc2OC[C@@H]2CNCCO2)cn1` [RABUSERTIB], the Kd [8] was > 30 µM (inactive), the Kd (Pyridoxal kinase) was > 30 µM (inactive) and the Kd [2] was > 30 µM (inactive). For the same compound, the Kd [3] was > 30 µM (inactive), the Kd [4] was > 30 µM (inactive) and the Kd (Ephrin type-A receptor 4) was > 30 µM (inactive). The Kd [5] was > 30 µM (inactive), the Kd (ADP/ATP translocase 3) was > 30 µM (inactive) and the Kd [6] was > 30 µM (inactive). For the same compound, the Kd [7] was > 30 µM (inactive).
In the case of `CN1CCN(CCOc2cc(OC3CCOCC3)c3c(Nc4c(Cl)ccc5c4OCO5)ncnc3c2)CC1` [SARACATINIB], the Kd (Pyridoxal kinase) was > 30 µM (inactive), the Kd [1] was > 30 µM (inactive) and the Kd [2] was > 30 µM (inactive). The Kd [3] was > 30 µM (inactive), the Kd [4] was > 30 µM (inactive) and the Kd (Ephrin type-A receptor 4) was 0.917 µM (active). For the same compound, the Kd [5] was > 30 µM (inactive), the Kd (ADP/ATP translocase 3) was > 30 µM (inactive) and the Kd [6] was > 30 µM (inactive). The Kd [7] was > 30 µM (inactive).
For `Cn1cc(-c2cnn3c(N)c(Br)c([C@@H]4CCCNC4)nc23)cn1` [SCH-900776], the Kd [8] was > 30 µM (inactive), the Kd (Pyridoxal kinase) was > 30 µM (inactive) and the Kd [2] was > 30 µM (inactive). The Kd [3] was > 30 µM (inactive), the Kd [4] was > 30 µM (inactive) and the Kd (Ephrin type-A receptor 4) was > 30 µM (inactive). For the same compound, the Kd [5] was > 30 µM (inactive), the Kd (ADP/ATP translocase 3) was > 30 µM (inactive) and the Kd [6] was 1.64 µM (active). The Kd [7] was > 30 µM (inactive).
In the case of `CCS(=O)(=O)c1cccc(-c2cc(C(=O)NC3CCN(C)CC3)c(C)c3[nH]c4ncc(C)cc4c23)c1` [TAK-901], the Kd [8] was 0.31 µM (active), the Kd (Pyridoxal kinase) was > 30 µM (inactive) and the Kd [1] was 1.75 µM (active). The Kd [3] was > 30 µM (inactive), the Kd [4] was > 30 µM (inactive) and the Kd (Ephrin type-A receptor 4) was 0.022 µM (active). For the same compound, the Kd [5] was > 30 µM (inactive), the Kd (ADP/ATP translocase 3) was > 30 µM (inactive) and the Kd [6] was > 30 µM (inactive). For the same compound, the Kd [7] was > 30 µM (inactive).
With `Cn1ncc(Cl)c1-c1cc(C(=O)N[C@H](CN)Cc2ccc(F)c(F)c2)oc1Cl` [UPROSERTIB] the Kd [8] was > 30 µM (inactive), the Kd (Pyridoxal kinase) was > 30 µM (inactive) and the Kd [1] was > 30 µM (inactive). The Kd [2] was > 30 µM (inactive), the Kd [3] was 2.64 µM (active) and the Kd (Ephrin type-A receptor 4) was > 30 µM (inactive). For the same compound, the Kd (ADP/ATP translocase 3) was > 30 µM (inactive) and the Kd [6] was > 30 µM (inactive).
For `C[C@@H](N)c1ccc(C(=O)Nc2ccnc3[nH]ccc23)cc1` [Y-39983], the Kd [8] was > 30 µM (inactive), the Kd (Pyridoxal kinase) was > 30 µM (inactive) and the Kd [1] was > 30 µM (inactive). For the same compound, the Kd [2] was > 30 µM (inactive), the Kd [4] was 0.09 µM (active) and the Kd (Ephrin type-A receptor 4) was > 30 µM (inactive). The Kd [5] was > 30 µM (inactive), the Kd (ADP/ATP translocase 3) was > 30 µM (inactive) and the Kd [6] was 0.034 µM (active). The Kd [7] was > 30 µM (inactive).
